Read-outs that look alike come from different tables or passages of the source.
Assays:
human caspase-2 = target: T1, human caspase-2 (Homo sapiens, UniProt P42575); test: Fluorescent enzyme assay, Casp2 (AFC substrate Z-VDVAD-AFC); type: biochemical; details: for Ki (Casp3) / Ki (Casp2): selectivity Casp2 over Casp3
T1 construct: inferred from pET23b, XhoI reverse primer without stop codon, Ni-NTA purification) (C); made in house; host or cells: E. coli BL21(DE3)
T1 sequence (P42575 170-452): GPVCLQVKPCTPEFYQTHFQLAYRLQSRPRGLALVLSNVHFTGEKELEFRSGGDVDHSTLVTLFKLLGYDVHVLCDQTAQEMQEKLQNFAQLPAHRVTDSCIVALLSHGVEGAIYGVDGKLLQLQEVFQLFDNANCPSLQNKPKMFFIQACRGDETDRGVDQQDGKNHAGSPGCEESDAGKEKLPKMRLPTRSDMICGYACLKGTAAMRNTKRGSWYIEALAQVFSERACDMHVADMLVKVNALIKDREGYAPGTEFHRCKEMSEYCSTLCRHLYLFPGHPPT
Description: (§1) Human recombinant Casp1, 6, 7, and 9 were purchased from BioVision (Milpitas/CA, USA). AFC fluorogenic substrates and control peptides (AcYVAD-CHO, AcVDVAD-CHO, AcDEVD-CHO, AcVEID-CHO, and AcLEHD-CHO) were purchased from Bachem (Torrance/CA, USA). The pET23b vector encoding human caspase-3 was a gift of Dr. Michelle Arkin at University of California, San Francisco. Expression and purification of Casp3 was guided by previously described protocols (Denault J-B, Salvesen G S., Current Protocols in Protein Science, 2002, 30(1), 21.13. 1-21.13. 15). Briefly, the plasmid was transformed into E. coli Rosetta 2 pLyss DE3 cells that were cultured at 1 L scale in shake flasks. Five hours post induction with IPTG, cells were harvested through centrifugation (4000 g for 10 minutes at 4° C.), lysed by sonication, and centrifuged again for 30 minutes at 20000 g. Supernatant was resuspended in buffer (100 mM Tris pH 8.0, 500 mM NaCl). Purification was achieved by nickel-affinity chromatography followed by ion-exchange chromatography. Protein was diluted to 0.5 mg/mL and stored at −80° C. in 100 mM Tris, pH 8.0 supplemented with 10% glycerol. The typical yield for the expression, isolation, and purification was approximately 3 mg/L. The DNA encoding human caspase-2 (hCASP2, amino acids 170-452, free of the N-terminal caspase activation and recruitment domain) open reading frame (ORF) was amplified via polymerase chain reaction (PCR) from full-length hCASP2 cDNA (Origene, Rockville, MD; Cat #SC321316) using following primers: forward, 5′-[…]-3′; reverse, 5′-[…]-3′. The PCR fragment was then cloned into the pET23b vector (Millipore Sigma, Burlington, MA), and DNA sequence was verified by classic Sanger sequencing analyses. Site-directed mutageneses were carried out using a QuikChange II XL site-directed mutagenesis kit (Agilent Technologies, Santa Clara, CA; Cat #200522) according to the manufacturer's instruction. Expression of recombinant hCASP2 was induced using 150 μM isopropyl-β-D-thiogalactopyranoside (IPTG) (Promega, Madison, WI) in the BL21(DE3) E. coli strain (Millipore Sigma) at 16° C. for 14 hours while shaking at 250 rpm. Cells were then harvested via centrifugation at 6,000 g, 4° C. for 15 minutes, followed by lysis via sonication. Proteins were initially purified using HisPur Ni-NTA resin (Thermo Fisher Scientific, Waltham, MA) followed by metal chelating chromatography (5 mL HiTrap Chelating HP columns (GE Healthcare Life Sciences, Piscataway, NJ)). Further purification was carried out using anion exchange chromatography (5 mL HiTrap Q HP columns (GE Healthcare Life Sciences)) for hCASP2. Proteins were stored in 1× phosphate-buffered saline (pH 7.4) at 10 mg/mL (concentration determined using a BCA assay (Thermo Fisher Scientific)), −80° C. until further use.
(§2) KM values were determined experimentally to be the following: Casp1: 5.9 μM; Casp2: 37.1 μM; Casp3: 7.6 μM; Casp6: 14.5 μM; Casp7: 13.8 μM; Casp9: 149.1 μM. Enzymes were diluted in buffer: 100 mM MES (pH 6.5) for Casp2 and or 100 mM HEPES (pH 7.0) for all other caspases, plus 150 mM NaCl, 0.1% CHAPS, 1.5% sucrose, 10 mM DTT. Enzyme concentrations were 0.05 U/well for Casp1, 6, and 7; 0.5 U/well for Casp9, 20 nM/well for Casp2, and 2 nM/well for Casp3. Enzyme in buffer (19 μL) was added per well in a black 384-well Corning 4514 assay plate. Test compounds were serially diluted in dimethyl sulfoxide (DMSO) and plated in duplicate into a Corning 3656 transfer plate. Test compound was added to assay plates in 0.5 μL aliquots per well and mixed 10 times using a BiomekFX (Beckman Coulter). Compound and enzyme mixture was incubated at 37° C. for 5 minutes for aldehyde warheads and 45 minutes for cyano warheads. […]

human caspase-3 = target: T2, human caspase-3 (Homo sapiens, UniProt P42574); test: Fluorescent enzyme assay, Casp3 (AFC substrate AcDEVD-AFC); type: biochemical
T2 construct: made in house; host or cells: E. coli Rosetta 2 pLysS DE3
T2 sequence (P42574 29-277): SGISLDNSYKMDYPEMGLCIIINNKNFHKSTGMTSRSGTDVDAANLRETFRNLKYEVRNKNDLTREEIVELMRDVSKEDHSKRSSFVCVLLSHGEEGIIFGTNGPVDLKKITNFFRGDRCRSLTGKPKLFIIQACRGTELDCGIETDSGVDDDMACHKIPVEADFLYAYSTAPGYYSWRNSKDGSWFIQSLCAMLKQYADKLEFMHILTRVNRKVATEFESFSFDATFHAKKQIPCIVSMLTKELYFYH
Description: as §1, §2

[1] = mean ± SEM of N independent experiments, each in duplicate or triplicate

Compound	pKi ± SEM Casp 2 (human caspase-2; [1])	Ki (Casp3) / Ki (Casp2) (human caspase-2)	pKi ± SEM Casp 3 (human caspase-3; [1])	Ki (human caspase-2)	selective versus Casp3 (human caspase-2; Casp2 over Casp3)	Ki (human caspase-3)	Ki (human caspase-2; mean ± SEM of N independent experiments, each in duplicate or triplicate, read-out: pKi ± SEM Casp 2 (converted))	Ki (human caspase-3; mean ± SEM of N independent experiments, each in duplicate or triplicate, read-out: pKi ± SEM Casp 3 (converted))
CC(=O)N[C@H](C(=O)N[C@@H](CC(=O)O)C(=O)N[C@H](C(=O)N1CCc2cc(C)ccc2[C@H]1C(=O)N[C@H](C=O)CC(=O)O)C(C)C)C(C)C [Compound 30b, (S)-3-((S)-2-acetamido-3-methylbutanamido)-4-(((S)-1-((S)-1-(((S)-1-carboxy-3-oxopropan-2-yl)carbamoyl)-6-methyl-3,4-dihydroisoquinolin-2(1H)-yl)-3-methyl-1-oxobutan-2-yl)amino)-4-oxobutanoic acid, reference compound]	7.89 ± 0.02	70	6.04 ± 0.06					
Cc1ccc2c(c1)CCN(C(=O)[C@@H](NC(=O)[C@H](CCCC(=O)O)NC(=O)C1Cc3ccccc3N1)C(C)C)[C@@H]2C(=O)N[C@H](C#N)CC(=O)O (stereo partly drawn) [Compound 1, (8)-6-(((S)-1-((8)-1-(((S)-2-carboxy-1-cyanoethyl)carbamoyl)-6-methyl-3,4-dihydroisoquinolin-2(1H)-yl)-3-methyl-1-oxobutan-2-yl)amino)-5-((S)-indoline-2-carboxamido)-6-oxohexanoic acid]		123		7.59 nM	123 fold	933 nM		
CC(=O)N[C@H](C(=O)NC(CC(=O)O)C(=O)N[C@H](C(=O)N1CCc2cc(C)ccc2C1C(=O)N[C@H](C=O)CC(=O)O)C(C)C)C(C)C (stereo in doubt) [Compound 30a, (R)-3-((S)-2-acetamido-3-methylbutanamido)-4-(((S)-1-((S)-1-(((S)-1-carboxy-3-oxopropan-2-yl)carbamoyl)-6-methyl-3,4-dihydroisoquinolin-2(1H)-yl)-3-methyl-1-oxobutan-2-yl)amino)-4-oxobutanoic acid, reference compound]		>9					10500 nM	> 100000 nM
